Experimental findings from patent US9375450B2, “Vaginal tissue rejuvenation compositions and methods” (priority 2011, dated 2016) are described below.

For assay [1], the system named is primary vaginal smooth muscle cells. As to the kind of experiment: Fastin assay for elastin (tropoelastin and surface deposited elastin production). Format: cell-based, human. To be noted: for tropoelastin production normalized to cell number (% of control) / cell culture surface deposited elastin production normalized to cell number (% of control): mean±SD; for cell culture surface deposited elastin production normalized to cell number (% of control): 48 hours of treatment; for vaginal smooth muscle cell elastin production (in words): cell cultures of the vagina from women who have undergone a hysterectomy. How it is done: (§1) After removal of the uterus, full-thickness samples of the anterior vaginal wall were obtained from the vaginal cuff at the anterior midline portion under sterile condition from four women without POP. Specimens were preserved in cold DMEM/F12 (Invitrogen, Carlsbad, Calif.) supplemented with 10% FBS, 1 mM glutamine, 0.075% Na2HCO3 and 100 ug/ml penicillin-streptomycin. After a maximum time of 4 hours from tissue harvesting the tissue was mechanically minced in cold cultured media and the fragments were washed 3 times in PBS and were plated onto fibronectin coated plastic dishes (Thermo Fischer Scientific, Rochester, N.Y.). After the initial outgrowth, clones with a morphology resembling the smooth muscle phenotype were patch cloned and propagated in culture. For cell characterization a 5000 cell/well fibronectin coated 8-well chamber slide was plated. Once cell confluence reached 80% the cells were washed twice with PBS and fixed in 4% PFA for 30 min at 37° C. To verify the intracytoplasmic distribution of F-actin fibers 4% PFA fixed cells were exposed to a permeabilizing solution of Tryton X100 0.1% and Rhodamine Phalloidin for 45 min at 37° C. Slides were then treated with mounting media (Vectashield, Vector Laboratories, Burlingame, Calif.) containing DAPI for nucleic acid staining and image acquisition was performed in glycerol immersion by confocal microscopy. In addition, the 8-well chamber slides were used to carry out the immunocytochemical staining. After blockage of endogenous peroxidase activity with a solution of hydrogen peroxide and methanol, slides were sequentially treated with the primary mouse antibody, biotinylated anti-mouse immunoglobulin, and Streptavidin-biotin-peroxidase complex (LSAB™+/HRP kit, Dako, Carpinteria, Calif.). Diaminobenzidine was used as a chromogen in the presence of hydrogen peroxide. Slides were then counterstained with hematoxylin. All reactions were carried out at room temperature (22° C.). To identify the SMC, anti-smooth muscle actin antibodies were used (monoclonal mouse, 1:250, 30 min incubation, clone 1A4, catalog #0851 Dako, Carpinteria, Calif.). Caldesmon expression was studied with a monoclonal mouse antibody, 1:100, 30 min incubation, (clone h-CD catalog #M3557 Dako, Carpinteria, Calif.). An antigen retrieval step was used for caldesmon using citrate buffer and a steamer for 30 min. As a negative control normal mouse serum was substituted for the antibody.
SMC from the fourth to sixth passages (5,000 cells per well) were cultured in 96-well or 6-well culture plates (Costar, Cambridge, Mass.), in a total volume of 200 μL or 2 mL DMEM/F-12 with 10% FBS and were grown to near confluence. Cells were incubated with zinc sulfate (10 μM, 20 μM), GW501516 (1 nM, 10 nM, 100 nM) or zinc sulfate with GW 501516 (20 μM with 10 nM) in 96-well plates with serum free DMEM/F-12. Treatment and control groups were performed in 6 replicate wells. Supernatants and cell lysates were collected 24 or 48 hrs after the initiation of treatment. Supernatants and cell lysates were treated with the Fastin Elastin Assay kit (Biocolor Ltd, UK) as recommended by the manufacturer. The Fastin Elastin Assay is a quantitative dye-binding method for the analysis of elastins extracted from biological materials. The dye label employed is 5, 10, 15, 20-tetraphenyl-21, 23-porphine tetra-suffocated (TPPS). The dye reagent binds to the ‘basic’ and ‘non-polar’ amino acid sequences found in mammalian elastins. Recovered dye-bound elastin from each sample and standard was read in a 96-well plate at 513 nm. All measurements were performed in quadruplicate. The measured elastin protein amounts were normalized to corresponding cell numbers to provide a reliable basis of comparison between samples.

The test system is the same in assay [2]. Briefly: Sircol collagen assay (cell culture surface deposited collagen). Format: cell-based, human. To be noted: 48 hours of treatment, mean±SD. How it is done:
as §1
The Sircol Assay (Biocolor Ltd., UK) is a dye-binding method designed for the analysis of acid and pepsin-soluble collagens. […]
The amount of collagen was determined by SIRCOL collagen assay according to manufacturer's instructions. […] Extracts were incubated with Sirius red dye and absorbance was determined at 555 nm with a spectrophotometer.

Assay [3] has as its system rat vaginal Col1a1, Col3a1, Col5a1 mRNA. As to the kind of experiment: qRT-PCR of vaginal collagen gene expression after 2 weeks vaginal suppositories. To be noted: OVX rats, vaginal suppositories 2 weeks, mean±SD; for ratio of vaginal Col1a1 to Col3a1 mRNA expression: placebo 0.78±0.2; for ratio of vaginal Col1a1 to Col5a1 mRNA expression: placebo 4.3±1.9. Format: in vivo. (In general: In qPCR the cycle at which signal appears reflects the starting amount.)
From the text: Ten to 12-weeks old female ovariectomized (OVX) Sprague-Dawley rats were utilized for the experiments. The animals were acclimatized to the environmental conditions before starting the experiment. The animals were housed individually and were allowed free access to water and rodent food. Two weeks after the ovariectomy rats (n=36) were divided into five groups: control (receiving placebo suppositories, n=8), Zinc (receiving zinc sulfate containing suppositories, n=8), GW (receiving GW501516 containing suppositories, n=8), Zinc with GW (receiving Zinc with GW 501516 containing suppositories, n=8) and Estradiol (receiving estradiol containing suppositories, n=4).
The suppositories were prepared according to the fusion method, using a polypeg suppository base (MEDISCA, N.Y., USA). […] Using a microwave, the suppository base was melted in a small beaker for 3 min and then transferred and kept into a water bath at a temperature of 55° C. The proper amount of above reagent was added to the liquefied base and meticulously crushed with a smooth rounded-end glass rod for about 20 min to make the solution to be even and clear. A pipette tip was used to suck some amount of solution and push it into a plastic tube with a diameter of 3.5 mm, and the tube was immediately left on the flat surface of an ice bucket. The suppository turned to white in color when it was solid. The moulded suppository was then pushed out of the tube using a round rod. The moulded suppository was cut using a razor blade to a length of 1.2 cm each, which was calibrated to equal a volume of 50±5 μl per each suppository. After 30 min of cooling at room temperature, the suppositories were stored at 4° C. in a closed chamber until use. They were left to reach room temperature before use.
The day after the last treatment the rats were overnight fasted and then sacrificed. Macroscopic measurement (genital hiatus, vaginal length) were taken and the vagina was dissected out carefully to avoid any injury to the vagina. The mid section of the vagina was utilized for histology (H and E stain, Masson's trichrome stain) and immunofluorescence and the rest of the vagina was used for RNA extraction and RT-PCR.
Total RNA was isolated from 20 mg of vaginal rat tissue in each experimental rat group using the RNeasy Mini kit (Qiagen) according to the manufacturer's specifications. For each total RNA preparation, DNase digestion was performed to remove contaminating genomic DNA. Total RNA samples from each tissue were quantified and evaluated for RNA integrity by the Agilent Bioanalyzer 2100 (Applied Biosystems, Foster City Calif., USA). Following RNA extraction, cDNA was reverse transcribed from ˜500 ng of each total RNA preparation using the qScript cDNA synthesis kit (Quanta Biosciences, Gaithersburg Md., USA). Finally, cDNA samples were used to perform gene expression analysis by qRT-PCR using SYBR Green technology on the RealPlex EP Mastercycler (Eppendorf, Germany) of five genes with known roles in vaginal tissue reconstruction: Collagen IaI (col 1a1), Collagen IIIaI (col 3a1), Collagen VaI (col 5a1), Elastin (eln), Tensin I (tns-1). Glyceraldehyde-3 Phosphate Dehydrogenase (gapdh) was used as a positive control to normalize the expression of each gene. Each qRT-PCR reaction was run in triplicate using Perfecta SYBR Green Supermix (Quanta Biosciences, Gaithersburg Md., USA) in 25 μL reaction volumes using a final concentration of 300 nM forward and reverse primers. For each of the genes analyzed in this study, primers were designed using Primer-BLAST software (NCBI) and synthesized by IDT Technologies (San Diego, Calif.).

In the case of `Cc1cc(SCc2sc(-c3ccc(C(F)(F)F)cc3)nc2C)ccc1OCC(=O)O` [GW501516, 2-[2-methyl-4-([4-methyl-2-[4-(trifluoromethyl)phenyl)-1,3-thiazol-5-yl]methylsulfanyl]phenoxy]acetic acid], the “tropoelastin production normalized to cell number (% of control)” value in assay [1] (1 nM, 24 hrs of culture) is given as 106.6±16 % of control; in assay [1] (10 nM, 24 hrs of culture), 120.5±16 % of control; in assay [1] (100 nm, 24 hrs of culture), 146.7±11 % of control. The “cell culture surface deposited elastin production normalized to cell number (% of control)” value in assay [1] (GW 10 nM) is 108.2±6 % of control; in assay [1] (GW 100 nM), 112.2±16 % of control. In assay [1], the “vaginal smooth muscle cell elastin production (in words)” value was “significantly increase”. The “cell culture surface deposited collagen production normalized to cell number (% of control)” value in assay [2] (GW 10 nM) is recorded as 151.0±22 % of control; in assay [2] (GW 100 nM), 118.2±19 % of control. Moreover, the “ratio of vaginal Col1a1 to Col3a1 mRNA expression” value in assay [3] turned out to be 1.0±0.2 relative units. Also, in assay [3], the “ratio of vaginal Col1a1 to Col5a1 mRNA expression” value is 8.8±3.0 relative units.

Turning to `O.O.O.O.O.O.O.O=S(=O)([O-])[O-].[Zn+2]` [zinc sulfate, zinc sulfate heptahydrate], the “tropoelastin production normalized to cell number (% of control)” value in assay [1] (10 μM, 48 hrs of culture) is recorded as 113.3±11 % of control; in assay [1] (20 μM, 48 hrs of culture), 117±8.9 % of control. Moreover, in assay [1], the “vaginal smooth muscle cell elastin production (in words)” value is “significantly increased”. Also, the “cell culture surface deposited elastin production normalized to cell number (% of control)” value in assay [1] (zinc sulfate 10 μM) is listed as 114.7±6 % of control; in assay [1] (zinc sulfate 20 μM), 118.0±25 % of control. Also, the “cell culture surface deposited collagen production normalized to cell number (% of control)” value in assay [2] (zinc sulfate 10 μM) is recorded as 139.3±49 % of control; in assay [2] (zinc sulfate 20 μM) it was 129.6±27 % of control. In assay [3], the “ratio of vaginal Col1a1 to Col3a1 mRNA expression” value came to 0.95±0.1 relative units. For the same compound, the “ratio of vaginal Col1a1 to Col5a1 mRNA expression” value in assay [3] came out at 9.7±2.5 relative units.
